Tests used:
[1] = tested on: MyD88 deficient mouse embryonic fibroblasts; experiment: Cytokine synthesis in mouse embryonic fibroblasts from MyD88 deficient mice; assay type: cell-based; details: 24 h; FBG 1 μM, PAM3, LPS, TNFα 100 ng/ml, IL-1 5 ng/ml
Source text: (§1) Homozygous MyD88 deficient mice on a C57BL/6 background were provided by the Sanger Institute (Cambridge, UK). Age matched congenic inbred wild type C57B/L6 mice were obtained from Charles River (Margate, UK). For isolation of mouse embryo fibroblasts one female aged 8-10 weeks was mated with two males aged 8-10 weeks. For isolation of bone marrow derived macrophages mice were female and between 10-12 weeks of age at the time of experimentation.
MEFs express high levels of mRNA of all 9 murine TLRs and are specifically and highly responsive to TLR ligand activation. […] Fibroblasts were cultured at 2×10^4 cells/well in DMEM containing 10% (v/v) FBS and 100 U/ml penicillin/streptomycin in 96-well tissue culture plates for 24 hours before stimulation.
(§2) Cells were incubated for 24 hours at 37° C. with the indicated doses of tenascin-C and recombinant tenascin-C fragments (1.0 μM-1.0 nM). Cells were also stimulated where indicated with LPS (1 ng/ml for human macrophages, 10 ng/ml for human fibroblasts, RA membrane cells and HEKs, 100 ng/ml for MEFS and BMDMs and 10 ng/ml for HEKS), PAM3 (10 ng/ml for human macrophages, human fibroblasts, and HEKs, 100 ng/ml for MEFs and BMDMs), murine IL-1 (5 ng/ml for MEFS) and murine TNF-α (100 ng/ml for MEFS). Unless specifically stated otherwise rough LPS was used for in vitro studies.
(§3) Supernatants were subsequently examined for the presence of the cytokines TNF-α, IL-6, and IL-8 by enzyme-linked immunosorbent assay (ELISA) according to the manufacturer's instructions. Absorbance was read on a spectrophotometric ELISA plate reader (Labsystems Multiscan Biochromic, Vantaa, Finland) and analyzed using the Ascent software program (Thermo Labsystems, Altrincham, UK).

[2] = tested on: human macrophages and RA synovial fibroblasts; experiment: Ligand induced cytokine synthesis after pre-incubation with function blocking antibodies or inhibitors; assay type: cell-based; details: 10 μg/ml IL1 receptor antagonist pre-incubation
Method: as §2
(§4) Where stated, cells were pre-incubated with 10 μg/ml anti-CD14 antibody, 10 μg/ml IL1 receptor antagonist, 10 μg/ml anti-TLR2 antibody, 25 μg/ml anti-TLR4 antibody, 10 or 25 μg/ml isotype control antibody, 25 μg/ml polymyxin B, or 1 μg/ml msbB LPS, for 30 minutes at 37° C. before stimulation. Where stated, recombinant tenascin-C and FBG, and LPS were boiled for 15 minutes before addition to cells
as §3

RA synovial fibroblasts [3] = experiment: Cytokine synthesis in RA synovial fibroblasts stimulated with tenascin-C, FBG or LPS; assay type: cell-based, human; details: 24 h
Source text: RA membrane cells (representing a mixed population of all synovial cell types) were isolated from synovial membranes obtained from patients undergoing joint replacement surgery as previously described (Brennan (1989)). RA synovial fibroblasts were isolated from the mixed population of RA membrane cells as previously described (Brennan (1989)). The study was approved by the local Trust ethics committee (Riverside NHS Research Committee), and waste tissue (synovium after joint replacement surgery) was obtained only after receiving signed informed consent from the patient and anonymyzing the tissue to protect patient identity.
(§5) Immediately after isolation, RA membrane cells and macrophages were cultured at 1×10^5 cells/well in RPMI 1640 containing 10% (v/v) FBS and 100 U/ml (Units/ml) penicillin/streptomycin in 96-well tissue culture plates for 24 hours before stimulation. Synovial fibroblasts (used only at either passage number 2 or 3) were cultured at 1×10^4 cells/well in DMEM containing 10% (v/v) FBS and 100 U/ml penicillin/streptomycin in 96-well tissue culture plates for 24 hours before stimulation.
as §2, §4, §3

[4] = tested on: primary human macrophages; experiment: Cytokine synthesis in primary human macrophages stimulated with tenascin-C or its domains; assay type: cell-based
Method: Human monocytes were isolated from peripheral blood (London Blood Bank) and macrophages were derived from monocytes after differentiation for 4 days with 100 ng/ml of M-CSF as previously described (Foxwell (1998)).
as §5, §2, §4, §3

RA membrane cells = experiment: Blockade of spontaneous cytokine synthesis in RA synovial membrane cultures by FBG peptides; assay type: cell-based, human; details: for inhibition of cytokine synthesis: highest concentrations, dose dependent (25, 100 or 250 μM, TNF & IL8, FIG. 16); for TNF and IL8 synthesis (inhibition): spontaneous cytokine synthesis, 24 h with peptide
Method: RA membrane cells (representing a mixed population of all synovial cell types) were isolated from synovial membranes obtained from patients undergoing joint replacement surgery (Brennan (1989)). Synovial membrane tissue was digested in RPMI 1640 (GIBCO) containing 5% fetal calf serum (FCS) (GIBCO), 5 mg/ml collagenase type IV (Sigma) and 0 15 mg/ml DNAse type I (Sigma) and incubated at 37° C. for 2 h.
Immediately after isolation, RA membrane cells were cultured at 1×10^5 cells/well in RPMI 1640 containing 10% (v/v) FBS and 100 U/ml penicillin/streptomycin in 96-well tissue culture plates. Cells were incubated for 24 h at 37° C. with no addition, buffer control (PBS, 1% BSA, 0.01% NaN3), or with 25 μm, 100 μM or 250 μM of each FBG spanning peptide.
as §3, with “were” for “were subsequently”, “instructions (R&D systems).” for “instructions.”

[5] = tested on: primary human macrophages; experiment: Cytokine synthesis by primary human macrophages stimulated with FBG peptides; assay type: cell-based; details: 1 or 20 μM peptide, 24 h (IL8, FIG. 17)
Method: (§6) After incubation the tissue was pipetted through a nylon mesh into a sterile beaker. The cells were then washed three times in complete medium (RPMI 1640 supplemented with 10% FCS). RA synovial fibroblasts were isolated from the mixed population of RA membrane cells by selection in DMEM (Bio-Whittaker) supplemented with 10% FBS, […], 100 U/ml penicillin, and streptomycin. Human monocytes were isolated from peripheral blood (London Blood Bank) and macrophages were derived from monocytes after differentiation for 4 days with 100 ng/ml of M-CSF.
(§7) Macrophages were cultured at 1×10^5 cells/well in RPMI 1640 containing 5% (v/v) FBS and 100 U/ml penicillin/streptomycin in 96-well tissue culture plates for 24 h before stimulation. Cells were incubated for 24 h at 37° C. with no addition, 1.0 μM FBG, 1 ng/ml LPS or 1 or 20 μM FBG peptide. Where stated, cells were pre-incubated with 20 μM FBG peptides for 15 min.
as §3, with “were” for “were subsequently”, “instructions (R&D systems).” for “instructions.”

human macrophages = experiment: FBG or LPS induced cytokine synthesis in human macrophages pre-incubated with FBG peptides; assay type: cell-based; details: pre-incubated with 20 μM peptide for 15 min; for FBG mediated cytokine synthesis (block): then 1.0 μM FBG 24 h
Method: as §6, §7
as §3, with “were” for “were subsequently”, “instructions (R&D systems).” for “instructions.”

[6] = tested on: TLR2 or TLR4 deficient embryonic fibroblasts and bone marrow derived macrophages; experiment: Cytokine synthesis in embryonic fibroblasts and macrophages from TLR2 or TLR4 deficient mice; assay type: cell-based, mouse; details: 24 h
Source text: as §1, with “Homozygous TLR2 and TLR4 deficient mice on a C57BL/6 background (an inbred strain of mice with a black coat) were obtained from B&K Universal (Hull, UK) Hoshino (1999) and Takeuchi (1999). Homozygous” for “Homozygous”
MEFs express high levels of mRNA of all 9 murine TLRs and are specifically and highly responsive to TLR ligand activation. […] MEFs were isolated from d13 embryos harvested from age-matched, pregnant female wild type, TLR2, TLR4 and null mice (as described in Todaro (1963)). Fibroblasts were cultured at 2×10^4 cells/well in DMEM containing 10% (v/v) FBS and 100 U/ml penicillin/streptomycin in 96-well tissue culture plates for 24 hours before stimulation.
BMDMs were derived by aspirating the femurs of age matched female wild type, TLR2 and TLR4 null mice as described in Butler (1999)) and culturing the cells for 7 days in DMEM, 20% (v/v) FBS, 10 ml/L (v/v) antibiotic-antimycotic solution PSA, 50 μM Mercaptoethanol and 10 ng/ml M-CSF. Macrophages were then cultured at 1×10^5 cells/well in DMEM, 20% (v/v) FBS, 10 ml/L (v/v) antibiotic-antimycotic solution PSA, 50 μM β-Mercaptoethanol in 96-well tissue culture plates for 24 hours before stimulation.
as §2, §3

RA synovial fibroblasts [7] = experiment: Cytokine synthesis in RA synovial fibroblasts transfected with tenascin-C siRNA; assay type: cell-based, human; details: compared to control cells (IL6)
Method: (§8) Synovial fibroblasts (used only at either passage number 2 or 3) were seeded at a concentration of 5×10^4 cells in a 3.5-cm dish. siRNA was transfected at a final concentration of 10 nM using Lipofectamine 2000 (Invitrogen) for 4 h in serum-free OptiMEM I. Two different siRNAs against human tenascin-C were used (s7069 and s229491) (Applied Biosystems).
Four hours after transfection, medium was changed with pre-equilibrated Dulbecco's modified Eagle's medium containing 10% FBS (v/v) and cells were incubated for a further 48 h and 72 h. Cells were then stimulated with 10 ng/ml LPS for 24 h at 37° C. Tenascin-C mRNA and protein levels were quantitated by PCR and western blotting respectively. Total RNA was extracted from cells using a QiaAmp RNA Blood mini kit (Qiagen, Germany). cDNA was synthesised from equivalent amounts of total RNA using SuperScript® III Reverse Transcriptase (invitrogen) and 18-mer oligo dTs (Eurofins MWG Operon).
as §3, with “were” for “were subsequently”, “instructions (R&D systems).” for “instructions.”

tenascin-C = experiment: siRNA mediated knockdown of tenascin-C expression in RA synovial fibroblasts; assay type: cell-based, human; details: 10 nM siRNA, compared to luciferase siRNA control
Method: as §8
siRNA sequences of s7069 are: (sense 5′ […]tt 3′, antisense 5′ […]tc 3′) and of s229491 are (5′ […]tt 3′, antisense 5′ […]gg 3′). siRNA against luciferase (Dharmacon) was transfected as a non-targeting control.
Four hours after transfection, medium was changed with pre-equilibrated Dulbecco's modified Eagle's medium containing 10% FBS (v/v) and cells were incubated for a further 48 h and 72 h. Cells were then stimulated with 10 ng/ml LPS for 24 h at 37° C. Tenascin-C mRNA and protein levels were quantitated by PCR and western blotting respectively. […]
Gene expression was analysed by delta-delta ct methods based on quantitative real-time PCR with TaqMan primer set human tenascin-C(Hs01115663-ml) and human ribosomal protein endogenous control (RPLPO) (4310879E) (Applied Biosystems) in a Corbett Rotor-gene 6000 machine (Corbett Research Ltd). Tenascin-C protein was detected in cell supernatants and cell lysates by SDS PAGE and western blotting using antibody MAB1908 (Millipore).

TNF-α [reference compound]
cytokine synthesis in embryonic fibroblasts with targeted deletion of MyD88 [1]: unaffected

IL-1 receptor antagonist: IL-1 receptor antagonist from R&D Systems
inhibition of FBG induction of cytokines [2]: did not inhibit

tenascin-C: recombinant full-length human tenascin-C purified from HEK293 conditioned medium
TNF-α synthesis in fibroblasts (RA synovial fibroblasts [3]): Neither LPS nor tenascin-C induced
IL-6 synthesis in RA synovial fibroblasts (RA synovial fibroblasts [3]; LPS 10 ng/ml): only induced IL-6 synthesis
IL-8 synthesis in RA synovial fibroblasts (RA synovial fibroblasts [3]; LPS 10 ng/ml): only induced IL-6 synthesis
production of TNF-α, IL-6 and IL-8 in human macrophages ([4]; 1.0 μM-1.0 nM, 24 h): dose dependently stimulated
cytokine stimulation: heat sensitivity and effect of polymyxin B ([4]; boiled 15 minutes, 25 μg/ml polymyxin B pre-incubation, human macrophages and synovial fibroblasts): heat sensitive and unaffected by the LPS inhibitor, polymyxin B

WIVFLRRKNGRENFYQNWKAYAAGFGDRRE [Peptide 3]
inhibition of cytokine synthesis (RA membrane cells): 95%
TNF and IL8 synthesis (inhibition) (RA membrane cells): inhibited

TIGLLYPFPKDCSQAMLNGDTTSGLYTIYL [Peptide 1]
cytokine synthesis (induction) [5]: induced cytokine synthesis in a dose dependent manner

ELRVDLRDHGETAFAVYDKFSVGDAKTRYK [Peptide 5]
cytokine synthesis (induction) [5]: induced cytokine synthesis in a dose dependent manner
effect on TNF synthesis (RA membrane cells; RA membrane cells, 24 h): no effect
maximal inhibition of IL8 synthesis (RA membrane cells; RA membrane cells, dose dependent): 81%
FBG mediated cytokine synthesis (block) (human macrophages): specifically blocked

Pam3Cys-Ser-Lys4 [reference compound]
cytokine synthesis in cells from TLR2 deficient mice [6]: unresponsive
cytokine synthesis in cells from TLR4 deficient mice [6]: did respond
cytokine synthesis in embryonic fibroblasts with targeted deletion of MyD88 [1]: abolished

KTRYKLKVEGYSGTAGDSMAYHNGRSFST [Peptide 6]
cytokine synthesis (induction) [5]: induced cytokine synthesis in a dose dependent manner

WYRNCHRVNLMGRYGDNNHSQGVNWFHWKG [Peptide 8]
inhibition of cytokine synthesis (RA membrane cells): 56%
TNF and IL8 synthesis (inhibition) (RA membrane cells): inhibited
cytokine synthesis in response to LPS (block) (human macrophages; then 1 ng/ml LPS 24 h): blocked
FBG mediated cytokine synthesis (block) (human macrophages): blocked

B1: tenascin-C siRNA: tenascin-C targeted siRNAs; combination of oligos 1+2 used for cytokine synthesis (nucleic acid)
sense 1: CGCGAGAACUUCUACCAAATT
antisense 1: UUUGGUAGAAGUUCUCGCGTC
sense 2: GGAAUAUGAAUAAAGAAGATT
antisense 2: UCUUCUUUAUUCAUAUUCCGG
modifications: chemistry not given here
notes: tenascin-C targeted siRNAs; combination of oligos 1+2 used for cytokine synthesis
inhibition of LPS induced cytokine production (RA synovial fibroblasts [7]; 10 ng/ml LPS 24 h): 44%
inhibition of basal level of cytokine synthesis (RA synovial fibroblasts [7]): 38%
knockdown of tenascin-C expression, maximal efficiency (tenascin-C): 94-96%

B2: IL-1: murine IL-1 used to stimulate MEFs (protein, UniProt P10749 118-269, looked up)
Interleukin-1 beta: VPIRQLHYRLRDEQQKSLVLSDPYELKALHLNGQNINQQVIFSMSFVQGEPSNDKIPVALGLKGKNLYLSCVMKDGTPTLQLESVDPKQYPKKKMEKRFVFNKIEVKSKVEFESAEFPNWYISTSQAEHKPVFLGNNSGQDIIDFTMESVSS
cytokine synthesis in cells from TLR2 deficient mice [6]: responsive
cytokine synthesis in cells from TLR4 deficient mice [6]: did respond
cytokine synthesis in embryonic fibroblasts with targeted deletion of MyD88 [1]: abolished
